# Measurements: PubChem BioAssay AID608 (Sanford-Burnham Center for Chemical Genomics, 2007)
# Several values for one entry are separate records, joined by “and”; a condition that tells them apart may be missing. Equal values may be shown once. Activity calls are given as the source filed them. The rule behind the calls is not given here.
# Target: Peptidyl-prolyl cis-trans isomerase FKBP1A (Homo sapiens) (UniProt P62942)
# Test: FKBP12 binders, biophysical, NMR detection (AID 608)
# Details: NMR binding, purified FKBP12
# Chain of Peptidyl-prolyl cis-trans isomerase FKBP1A (Homo sapiens) (P62942 whole entry, looked up): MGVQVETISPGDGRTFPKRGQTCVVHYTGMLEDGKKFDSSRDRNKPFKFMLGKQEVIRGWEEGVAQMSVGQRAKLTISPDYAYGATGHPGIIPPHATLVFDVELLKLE
row,SMILES,Kd
1,CC(C)c1c(O)ccc2c1CCC1[C@@](C)(C=O)CCC[C@]21C (stereo partly specified),> 4 mM (inactive)
2,O=C1NC(=O)/C(=C/c2ccc(O)cc2)N1,> 4 mM (inactive)
3,O=C(O)C(CO)c1ccccc1 (stereo unspecified),> 4 mM (inactive)
4,O=C(O)c1onc2ccccc12,> 4 mM (inactive)
5,CC1CCC2(OC1)OC1CC3C4CC[C@H]5C[C@@H](O)CC[C@]5(C)C4CC(=O)[C@]3(C)C1C2C (stereo partly specified),> 4 mM (inactive)
6,O=C(O)c1ccc(CN2CCCCC2)o1,> 4 mM (inactive)
7,CCOC(=O)Cc1cc(=O)n2[nH]c(C)cc2n1,> 4 mM (inactive)
8,Cc1oc(S(=O)(=O)N2CCCCC2)cc1C(=O)O,> 4 mM (inactive)
9,CC(=O)Nc1nc(C)nc(-c2ccccc2)c1C(C)=O,> 4 mM (inactive)
10,C[C@@H]1OC(O[C@H]2C(O[C@H]3CC[C@@]4(C)C(CC[C@]5(C)C4CC=C4C6CC(C)(C)CC[C@]6(C(=O)O)CC[C@]45C)[C@]3(C)CO)OC[C@H](O)[C@@H]2O)[C@H](O)[C@H](O)[C@H]1O (stereo partly specified),> 4 mM (inactive)
11,Cc1onc(-c2ccc(F)cc2)c1C(=O)O,> 4 mM (inactive)
12,O=C(Nc1nnc(-c2ccco2)o1)C1=COCCO1,> 4 mM (inactive)
13,Cn1nccc1N,> 4 mM (inactive)
14,Cc1ccc(NC(=O)c2ccccc2)s1,> 4 mM (inactive)
15,NC(=O)NC1C=CS(=O)(=O)C1 (stereo unspecified),> 4 mM (inactive)
16,Cc1nnsc1-c1onc(C)c1C(=O)O,> 4 mM (inactive)
17,O=C1C2C3C=CC(C3)C2C(=O)N1c1nccs1 (stereo unspecified),> 4 mM (inactive)
18,CC1CN(C2=NCCN2)CC(C)O1 (stereo unspecified),> 4 mM (inactive)
19,CC(=O)Nc1nnc(-c2ccco2)o1,> 4 mM (inactive)
20,CN(C)c1ccc(/C=C2/NC(=S)NC2=O)cc1,> 4 mM (inactive)
21,CC(=O)O[C@H]1CC[C@]2(C)C3CC[C@@]4(C)C(CC5O[C@@]6(CCC(C)CO6)[C@@H](C)C54)C3CC[C@@H]2C1 (stereo partly specified),> 4 mM (inactive)
22,O=C1C2C3CCC(O3)C2C(=O)N1c1ccccc1 (stereo unspecified),> 4 mM (inactive)
23,NCc1ccc2sccc2c1,> 4 mM (inactive)
24,Cn1c(NCc2ccco2)nc2ccccc21,> 4 mM (inactive)

row,SMILES,Kd
1,OCCCc1nc2ccc(C(F)(F)F)cc2[nH]1,> 4 mM (inactive)
2,COC(=O)NCc1cc2cc(Cl)ccc2[nH]1,> 4 mM (inactive)
3,CC(C)c1ccc2c(c1)CCC1[C@](C)(CN)CCC[C@]21C (stereo partly specified),> 4 mM (inactive)
4,O=c1c(-c2ccccc2)coc2cc(O)cc(O)c12,> 4 mM (inactive)
5,O=c1ccc2c([nH]1)CCCC2,> 4 mM (inactive)
6,CC(C)(O)[C@@H]1[C@H]2OC(=O)[C@@H]1[C@]1(O)C[C@H]3O[C@]34C(=O)O[C@H]2[C@]14C,> 4 mM (inactive)
7,Nc1nc(-c2nc3ccccc3[nH]2)cs1,0.068 mM and 0.098 mM
8,O=C(NCc1ccco1)c1cccc(F)c1,> 4 mM (inactive)
9,Cc1nnc(SCc2cccs2)[nH]c1=O,> 4 mM (inactive)
10,COc1ccccc1NC(=O)C1CCC(=O)N1 (stereo unspecified),> 4 mM (inactive)
11,NC(=O)c1ccccc1N1CCCCC1,> 4 mM (inactive)
12,C(=N\n1cnnc1)/c1cccs1,> 4 mM (inactive)
13,Cc1cc(NC(=O)NCCCSc2nncn2C)no1,> 4 mM (inactive)
14,O=C1CCC(=O)N1c1ccc(O)cc1,> 4 mM (inactive)
15,Cc1ccc(Cl)cc1NS(=O)(=O)N1CCCCC1,inactive
16,O=c1[nH]c(CN2CCN(CCO)CC2)nc2ccccc12,> 4 mM (inactive)
17,CS(=O)(=O)N1CCN(c2ncccn2)CC1,> 4 mM (inactive)
18,COc1ccc(-c2noc(-c3ccco3)n2)cc1OC,> 4 mM (inactive)
19,CN1C(=O)N(C)C2NC(=O)NC21 (stereo unspecified),> 4 mM (inactive)
20,Nc1nnc(SCc2ccc(F)cc2Cl)s1,> 4 mM (inactive)
21,CNC(=O)N1CCN(C(=O)NC)CC1,> 4 mM (inactive)
22,N/N=C/c1cccnc1,> 4 mM (inactive)
23,Cc1cc2cc3c(C)cc(=O)oc3c(C)c2o1,> 4 mM (inactive)
24,O=C1CC(=O)N2N=C(c3ccccc3)SC2=N1,> 4 mM (inactive)

row,SMILES,Kd
1,Nc1ncnc(NCc2cccnc2)c1[N+](=O)[O-],> 4 mM (inactive)
2,Cc1ccc(C(=O)N2CC(=O)NC(=O)C2)cc1,> 4 mM (inactive)
3,C[C@H]1C(=O)CCC2[C@]3(C)CC[C@@]4(C)C5CC(C)(C)CC[C@]5(C)CC[C@]4(C)C3CC[C@@]21C (stereo partly specified),> 4 mM (inactive)
4,COc1cc(/C=C/C(=O)/C=C(O)/C=C/c2ccc(O)c(OC)c2)ccc1O,> 4 mM (inactive)
5,O=CN1CCN(C2CC(=O)N(c3ccccc3)C2=O)CC1 (stereo unspecified),> 4 mM (inactive)
6,O=C(O)c1csc2ccccc12,> 4 mM (inactive)
7,COc1cc2c(cc1OC)[C@@]13CCN4CC5=CCOC6CC(=O)N2C1[C@H]6[C@H]5C[C@H]43 (stereo partly specified),> 4 mM (inactive)
8,COc1ccc2c(c1)OC[C@@H](Cc1ccc(OC)c(OC)c1)[C@H]2O,> 4 mM (inactive)
9,CC(C)[C@@H]1CC[C@@H](C)C[C@H]1OC(=O)c1ccccc1,> 4 mM (inactive)
10,O[C@H]1C=C2CCN3Cc4cc5c(cc4C(C23)[C@@H]1O)OCO5 (stereo partly specified),> 4 mM (inactive)
11,CCC(C)C(=O)c1c(O)c(C)c2oc3c(C)c(O)c(C(=O)C(C)CC)c(O)c3c2c1O (stereo unspecified),> 4 mM (inactive)
12,CC(=O)c1ccc2c(c1)OCCO2,> 4 mM (inactive)
13,CC(=O)c1ccc[nH]1,> 4 mM (inactive)
14,Cn1c(CO)nc2ccccc21,> 4 mM (inactive)
15,COc1c2occc2c(OC)c2c(=O)cc(C)oc12,> 4 mM (inactive)
16,c1ccc(C[N+]23CCN(CC2)CC3)cc1,> 4 mM (inactive)
17,O=S1(=O)NC(=NCc2ccccc2)c2ccccc21,> 4 mM (inactive)
18,O=C(CSc1ccnc(=O)[nH]1)NCc1ccco1,> 4 mM (inactive)
19,O=C1CSC(=O)N1CNc1ccccc1,> 4 mM (inactive)
20,O=C(NCc1cccs1)c1ccncc1,> 4 mM (inactive)
21,CCOc1nc(C)ccc1-c1noc(-c2ccco2)n1,> 4 mM (inactive)
22,O=c1oc(-c2ccccc2)nc2c1cnn2-c1ccccc1,> 4 mM (inactive)
23,O=C(O)CN1C(=O)c2ccc(C(=O)O)cc2C1=O,> 4 mM (inactive)
24,CC(=O)c1c(O)c(C)c(O)c2c1OC1=CC(=O)C(C(C)=O)C(=O)C12C (stereo unspecified),> 4 mM (inactive)

row,SMILES,Kd
1,O=C(CSc1ncccn1)Nc1nccs1,> 4 mM (inactive)
2,O=C(CC1CCCCC1)N1CCN(c2ccccn2)CC1,> 4 mM (inactive)
3,CCNC(CC(=O)Nc1cccc([N+](=O)[O-])c1)C(=O)O (stereo unspecified),> 4 mM (inactive)
4,COC(=O)C1[C@H]2C[C@H]3c4[nH]c5ccccc5c4CCN3C[C@@H]2CC[C@@H]1O (stereo partly specified),> 4 mM (inactive)
5,O=C(COc1cccc(Cl)c1)N1CCOCC1,inactive
6,CC(=O)N1C(=S)NC(=O)/C1=C\c1cccnc1,> 4 mM (inactive)
7,Cc1cc(SCC(=O)c2ccccc2)nc(=O)[nH]1,> 4 mM (inactive)
8,Nc1ccc2nsnc2c1,> 4 mM (inactive)
9,Cc1cc(C(=O)Nc2nnc(C(F)(F)F)s2)no1,> 4 mM (inactive)
10,C[C@@H]1CCC2[C@](C)(CO)[C@@H](O)CC[C@]2(C)[C@@]12CC[C@@](CO)(CCO)O2 (stereo partly specified),> 4 mM (inactive)
11,O=C(c1ccncc1)c1ccc(Br)cc1,> 4 mM (inactive)
12,Cc1ccc(SC(C)c2nc(-c3ccncc3)no2)cc1 (stereo unspecified),inactive
13,CC(=O)Nc1ccc(-c2ccc3nncn3n2)cc1,> 4 mM (inactive)
14,CC(CO)NC(=O)C1C=C2c3cccc4[nH]cc(c34)C[C@H]2N(C)C1 (stereo partly specified),> 4 mM (inactive)
15,NC(=O)c1ccsc1NC(=O)c1ccccc1[N+](=O)[O-],> 4 mM (inactive)
16,Cc1cc(N2CCCC2=O)c(N)cc1N,> 4 mM (inactive)
17,CC12CNCC(C)(CNC1)C2O (stereo unspecified),> 4 mM (inactive)
18,O=C(O)Cn1cc(C(=O)C2CC2)c2ccccc21,> 4 mM (inactive)
19,O=c1[nH]cc(Nc2ccccc2)c(=O)[nH]1,> 4 mM (inactive)
20,CC(C)c1ccc(S(=O)(=O)CC(=O)N2CCOCC2C(=O)OCCCc2cccnc2)cc1 (stereo unspecified),inactive
21,CC(C)CCCC(C)C1CCC2C3C[C@@H](O)[C@@]4(O)C[C@@H](O)CC[C@]4(C)C3CC[C@]12C (stereo partly specified),> 4 mM (inactive)
22,CS(=O)(=O)CCCCN=C=S,> 4 mM (inactive)
23,CC(C)c1ccc2c(c1O)CC[C@H]1C3=C(CC[C@]21C)C(=O)OC3,> 4 mM (inactive)
24,Clc1ncnc2[nH]ncc12,> 4 mM (inactive)

row,SMILES,Kd
1,O=C(Nc1ccccc1[N+](=O)[O-])c1ccc(=O)[nH]n1,> 4 mM (inactive)
2,Cc1cc(=O)[nH]c2ccccc12,> 4 mM (inactive)
3,FC(F)(F)c1cccc(Cn2c(-c3cscn3)nc3ccccc32)c1,inactive
4,COc1cc2c(cc1OC)-c1cc3ccc(OC)c(OC)c3c[n+]1CC2,> 4 mM (inactive)
5,NCc1oc(-c2ccccc2)cc1C(=O)O,> 4 mM (inactive)
6,O=C(O)c1cccc(N2C(=O)C3CC=CCC3C2=O)c1 (stereo unspecified),> 4 mM (inactive)
7,CC(C)C(C)/C=C/C(C)C1CCC2C3=CC=C4CC(O)CCC4(C)C3CCC21C (stereo unspecified),> 4 mM (inactive)
8,CC(=O)Nc1cc2c(cc1C(=O)C(C)C)OCCO2,> 4 mM (inactive)
9,COc1ccc(NC(=O)C2CC(=O)N=C(N)S2)cc1 (stereo unspecified),> 4 mM (inactive)
10,Cc1occc1C(=O)N1CCC2(CC1)OCCO2,> 4 mM (inactive)
11,COc1ccccc1NC(=O)CCC(=O)O,> 4 mM (inactive)
12,COC1=CC23CCCN2CCc2cc4c(cc2C3C1O)OCO4 (stereo unspecified),> 4 mM (inactive)
13,COc1ccc2c(c1O)-c1c(OC)c(OC)cc3c1[C@H](C2)N(C)CC3,> 4 mM (inactive)
14,Cc1c(CO)cnn1-c1ccc(F)cc1,> 4 mM (inactive)
15,OCC1Cc2ccccc2N1 (stereo unspecified),> 4 mM (inactive)
16,CCn1nnc2c(NCc3ccccn3)ncnc21,> 4 mM (inactive)
17,COCc1cc(=O)oc2cc(O)c(Cl)cc12,> 4 mM (inactive)
18,CC1(C)NC(=O)N(CCOc2ccc3c(c2)CCC3)C1=O,> 4 mM (inactive)
19,NC(=O)c1ccsc1NC(=O)c1cccnc1,> 4 mM (inactive)
20,O=C(Nc1ccon1)c1cccc(Cl)c1,> 4 mM (inactive)
